Reference: patent US20220273605A1, “COMPOSITIONS AND METHODS FOR TREATMENT OF PRESBYOPIA” (priority 2019, published 2022)

Test system: rabbits
Assay: Effect on pupil diameter in rabbit animal model (change from baseline)
Format: in vivo
Conditions: for reduction from baseline pupil diameter: dose of 1.25% w/w
Description: Dose solutions with concentration range of 0.25% to 4% pilocarpine were prepared and dosed in rabbits. The effect on pupil diameter was measured and recorded as the change from baseline.
Dose solutions with concentration range of 0.03% to 3% carbachol were prepared and dosed in rabbits. The effect on pupil diameter was measured and recorded as the change from baseline. […] The expected efficacious range of carbachol resulting in the aforementioned pupil size reduction would correspond to approximately 0.1 to 1% w/w carbachol (FIG. 2).

| SMILES | reduction from baseline pupil diameter (over 0.5 to 2 hours) | reduction from baseline pupil diameter (up to 3 hours) | dose that most closely matches the optimum dose response measured for pilocarpine (20-30% pupil diameter reduction over 0.5 to 2 hours, about 10% up to 3 hours, tested 0.03% to 3%) |
| --- | --- | --- | --- |
| CC[C@@H]1C(=O)OC[C@@H]1Cc1cncn1C [pilocarpine] | 20-30% | approximately 10% |  |
| C[N+](C)(C)CCOC(N)=O.[Cl-] [carbachol, carbamoylcholine chloride] |  |  | approximately 0.6 % w/w |
